# Experimental data from patent publication US6855730B2, “3-methylidenyl-2-indolinone modulators of protein kinase” (Sugen, Inc., priority 1998, dated 2005).
# System: HUV-EC-C cells (aFGF, FGF-R)
# Assay: cells
# Type: cell-based
# Settings: Homo sapiens, HUVEC, read-out: HUVEC aFGF IC50
# Procedure: Repeat the wash two more times with D-PBS, resuspend the cells in-about 1 ml assay medium/15 cm^2 of tissue culture flask. […] Add cells to 96-well flat-bottom plates at 100 μl/well or 0.8-1.0×10^4 cells/well, incubate −24h at 37° C., 5% CO2.
# Use the same assay medium as mentioned in day 0, step 2 above. Titrations are made by adding 90 μl/well of test compound at 200 μM (4× the final well concentration) to the top well of a particular plate column. Since the stock test compound is usually 20 mM in DMSO, the 200 μM drug concentration contains 2% DMSO.
# A diluent made up to 2% DMSO in assay medium (F12K+0.5% fetal bovine serum) is used as diluent for the test compound titrations in order to dilute the test compound but keep the DMSO concentration constant. Add this diluent to the remaining wells in the column at 60 μl/well. Take 60 μl from the 120 μl of 200 μM test compound dilution in the top well of the column and mix with the 60 μl in the second well of the column. Take 60 μl from this well and mix with the 60 μl in the third well of the column, and so on until two-fold titrations are completed. When the next-to-the-last well is mixed, take 60 μl of the 120 μl in this well and discard it. Leave the last well with 60 μl of DMSO/media diluent as a non-test compound-containing control. […] In triplicate, add 50 μl/well of 80 μg/ml VEGF, 20 ng/ml ECGF, or media control to each test compound condition. As with the test compounds, the growth factor concentrations are 4× the desired final concentration. Use the assay media from day 0 step 2 to make the concentrations of growth factors.
# Freeze plates overnight at −20° C.
row,Structure (SMILES),IC50 [µM]
1,"Cc1c[nH]c(/C=C2\C(=O)Nc3ccccc32)c1CCC(=O)O [Example 215, 3-[4-Methyl-2-(2-oxo-1,2-dihydroindol-3-ylidenemethyl)-1H-pyrrol-3-yl]-propionic acid]",1.1

# Same assay, conditions: Homo sapiens, HUVEC; aFGF-stimulated; read-out: HUVEC aFGF IC50
row,Structure (SMILES),IC50 [µM]
1,"O=C(O)CCc1c(/C=C2\C(=O)Nc3ccc(Cl)cc32)[nH]c2c1CCCC2 [Example 191, 3-[2-(5-Chloro-2-oxo-1,2-dihydroindol-3-ylidenemethyl)-4,5,6,7-tetrahydro-1H-indol-3-yl]-propionic acid]",0.25
2,"COc1ccc2c(c1)NC(=O)/C2=C\c1[nH]c2c(c1CCC(=O)O)CCCC2 [Example 196, 3-[2-(6-Methoxy-2-oxo-1,2-dihydroindol-3-ylidenemethyl)-4,5,6,7-tetrahydro-1H-indol-3-yl]-propionic acid]",1.6
3,"CN(C)C(=O)CCc1c(/C=C2\C(=O)Nc3ccccc32)[nH]c2c1CCCC2 [Example 197, N,N-Dimethyl-3-[2-(2-oxo-1,2-dihydroindol-3-ylidenemethyl)-4,5,6,7-tetrahydro-1H-indol-3-yl]-propionamide]",202
4,"NC(=O)CCc1c(/C=C2\C(=O)Nc3ccccc32)[nH]c2c1CCCC2 [Example 199, 3-[2-(2-Oxo-1,2-dihydroindol-3-ylidenemethyl)-4,5,6,7-tetrahydro-1H-indol-3-yl]-propionamide]",0.1
5,"CNC(=O)CCc1c(/C=C2\C(=O)Nc3ccccc32)[nH]c2c1CCCC2 [Example 201, N-Methyl-3-[2-(2-oxo-1,2-dihydroindol-3-ylidenemethyl)-4,5,6,7-tetrahydro-1H-indol-3-yl]-propionamide]",0.16

# Molecular target: T1, 3T3 cell line genetically engineered to express human EGF-R (Homo sapiens, UniProt P00533)
# T1 construct: expressed in transfected cells; host or cells: 3T3
# Assay: EGF-induced BrdU incorporation assay
# Type: cell-based
# Settings: read-out: BrdU EGF driven IC50
row,Structure (SMILES),IC50 [µM]
1,"COc1c(C(C)C)cc(/C=C2/C(=O)Nc3ccccc32)cc1C(C)C [Example 1, 3-(3,5-Diisopropyl-4-methoxybenzylidene)-1,3-dihydroindol-2-one]",6.6
2,"COc1c(C(C)C)cc(/C=C2/C(=O)Nc3ccc(Cl)cc32)cc1C(C)C [Example 2, 5-Chloro-3-(3,5-diisopropyl-4-methoxybenzylidene)-1,3-dihydroindol-2-one]",6.5
3,"Cc1c[nH]c(/C=C2\C(=O)Nc3ccccc32)c1CCC(=O)O [Example 215, 3-[4-Methyl-2-(2-oxo-1,2-dihydroindol-3-ylidenemethyl)-1H-pyrrol-3-yl]-propionic acid]",> 100
4,"Cc1c[nH]c(/C=C2\C(=O)Nc3ccc(Cl)cc32)c1CCC(=O)O [Example 216, 3-[2-(5-Chloro-2-oxo-1,2-dihydroindol-3-ylidenemethyl)-4-methyl-1H-pyrrol-3-yl]-propionic acid]",> 50
5,"COc1ccc2c(c1)NC(=O)/C2=C\c1[nH]cc(C)c1CCC(=O)O [Example 217, 3-[2-(6-Methoxy-2-oxo-1,2-dihydroindol-3-ylidenemethyl)-4-methyl-1H-pyrrol-3-yl]-propionic acid]",> 50
6,"Cc1c[nH]c(/C=C2\C(=O)Nc3cccc(C)c32)c1CCC(=O)O [Example 218, 3-[2-(4-Methyl-2-oxo-1,2-dihydroindol-3-ylidenemethyl)-4-methyl-1H-pyrrol-3-yl]-propionic acid]",43.5
7,"Cc1c[nH]c(C=C2C(=O)Nc3cc(Cl)ccc32)c1CCC(=O)O [Example 219, 3-[2-(6-Chloro-2-oxo-1,2-dihydroindol-3-ylidenemethyl)-4-methyl-1H-pyrrol-3-yl]-propionic acid]",> 50
8,"Cc1c[nH]c(/C=C2\C(=O)Nc3ccc(Br)cc32)c1CCC(=O)O [Example 220, 3-[2-(5-Bromo-2-oxo-1,2-dihydroindol-3-ylidenemethyl)-4-methyl-1H-pyrrol-3-yl]-propionic acid]",> 50
9,"COc1ccc2c(c1)/C(=C/c1[nH]cc(C)c1CCC(=O)O)C(=O)N2 [Example 222, 3-[2-(5-Methoxy-2-oxo-1,2-dihydroindol-3-ylidenemethyl)-4-methyl-1H-pyrrol-3-yl]-propionic acid]",> 50
